Reference: patent US8546357B2, “Boron-containing small molecules for controlling ectoparasites” (priority 2011, dated 2013)

System: American dog tick (Dermacentor variabilis) nymphs
Assay: Efficacy against nymphal-stage American dog ticks on rats, oral
Format: in vivo
Conditions: oral point dose of between 5-25 mg/kg bodyweight, 48 hours after treatment
Protocol: Evaluations were conducted using a modified version of the assay as described in Gutierrez et al., J. Med. Entomol. 43(3): 526-532 (2006). This assay may be modified by simply using different tick species (the reference describes Amblyomma americanum ticks), such as Dermacentor variabilis or Rhipicephalus sanguineus ticks, as well as different life-stages (larval, nymphal or adult). Further, the reference describes using topical application methods, but oral, transdermal and subcutaneous injection routes of administration may be used.
In these studies, adult male or female rats, approximately 300 grams in size, were randomly assigned to a treatment group or a control (untreated negative control or fipronil positive control) group. Each group consisted of three (3) to five (5) rats. […] On Day 2, approximately forty-eight (48) hours after treatment, live and dead ticks were removed from animals and counted.
Live tick counts were transformed using the natural logarithm transformation plus one (Ln count+1); addition of one to each count served to adjust for counts that were zero. […] GM percent efficacy of treatments was calculated using the following formula:
Enantiomers were evaluated for activity against American dog tick (Dermacentor variabilis) nymphs on rats. […] On Day 2, approximately forty-eight (48) hours after treatment, live and dead ticks were removed from animals and counted. […]

Cc1cc(C2=NOC(c3cc(Cl)c(Cl)c(Cl)c3)(C(F)(F)F)C2)ccc1C(=O)NCc1ccc2c(c1)B(O)OC2(C)C (stereo not shown) [Compound 7, N-((1-Hydroxy-3,3-dimethyl-1,3-dihydrobenzo[c][1,2]oxaborol-6-yl)methyl)-2-methyl-4-(5-(3,4,5-trichlorophenyl)-5-(trifluoromethyl)-4,5-dihydroisoxazol-3-yl)benzamide]
Maximum in vivo efficacy (% reduction in live tick counts): 7 (100%), 8 (100%),
